Data reported in US20240366612A1, “COMPOUNDS AND METHODS FOR MODULATING NUCLEIC ACID SPLICING” (REMIX THERAPEUTICS INC., priority 2021, published 2024).

Legend:
HTT CJ mRNA = experiment: Gene panel canonical junction qPCR assay, HTT; assay type: cell-based; settings: Homo sapiens, larger gene panel, read-out: HTT IC50 (decrease in CJ mRNA levels)
Description: (§1) Compounds described herein were used to modulate RNA transcript abundance in cells. The expression of a target mRNA was measured by detecting the formation of an exon-exon junction in the canonical transcript (CJ). A compound mediated exon-inclusion event was detected by observing an increase in formation of a new junction with an alternative exon (AJ). Real-time qPCR assays were used to detect these splicing switches and interrogate the potency of various compounds towards different target genes. A high-throughput real time quantitative PCR (RT-qPCR) assay was developed to measure these two isoforms of the mRNA (CJ and AJ) for exemplary genes, such as HTT, SMN2, and MYB, together with a control housekeeping gene, GAPDH or GUSB or PPIA, used for normalization. Briefly, the A673 or K562 cell line was treated with various compounds described herein (e.g., compounds of Formula (I)). After treatment, the levels of the HTT, MYB, or SMN2 mRNA targets were determined from each sample of cell lysate by cDNA synthesis followed by qPCR.
(§2) The A673 cell line was cultured in DMEM with 10% FBS. Cells were diluted with full growth media and plated in a 96-well plate (15,000 cells in 100 ul media per well). The plate was incubated at 37° C. with 5% CO2 for 24 hours to allow cells to adhere. An 11-point 3-fold serial dilution of the compounds was made in DMSO then diluted in media in an intermediate plate. Compounds were transferred from the intermediate plate to the cell plate with the top dose at a final concentration of 10 uM in the well. Final DMSO concentration was kept at or below 0.25%. The cell plate was returned to the incubator at 37° C. with 5% CO2 for an additional 24 hours.
(§3) The K562 cell line was cultured in IMDM with 10% FBS. For K562, cells were diluted with full growth media and plated in either a 96-well plate (50,000 cells in 50 uL media per well) or a 384-well plate (8,000-40,000 cells in 45 uL media per well). An 11-point 3-fold serial dilution of the compounds were made in DMSO then diluted in media in an intermediate plate. Compound was transferred from the intermediate plate to the cell plate with the top dose at a final concentration of 10 uM in the well. Final DMSO concentration was kept at or below 0.25%. Final volume was 100 uL for 96-well plate and 50 uL for 384-well plate. The cell plate was then placed in an incubator at 37° C. with 5% CO2 for 24 hours.
(§4) The data analysis was performed by first determining the ΔCt vs the housekeeper gene. This ΔCt was then normalized against the DMSO control (ΔΔCt) and converted to RQ (relative quantification) using the 2^(−ΔΔCt) equation. The RQ were then converted to a percentage response by arbitrarily setting an assay window of 3.5 and 4.0 ΔCt for HTT-CJ and MYB-CJ respectively and an assay window of 9 and 3 ΔCt for HTT-AJ and MYB-AJ in 96 well format (50,000 K562 cells/well and 15,000 A673 cells per well) and an assay window of 3 and 4 ΔCt for HTT-CJ and MYB-CJ respectively and an assay window of 5 and 3 ΔCt for HTT-AJ and MYB-AJ respectively in 384 well format (8,000 K562 cells/well example). […] The percentage response was then fitted to the 4 parametric logistic equation to evaluate the concentration dependence of compound treatment. The increase in AJ mRNA is reported as AC50 (compound concentration having […] in AJ increase) while the decrease in CJ mRNA levels is reported as IC50 (compound concentration having 50% response in CJ decrease).
(§5) Additional studies were carried out for a larger panel of genes using the protocol provided above. The junction between flanking upstream and downstream exons was used to design canonical junction qPCR assays. At least one of the forward primer, reverse primer or the CY5-labeled 5′ nuclease probe (with 3′ quencher such as ZEN/Iowa Black FQ) was designed to overlap with the exon junction to capture the CJ mRNA transcript. […]

HTT mRNA = experiment: Splicing RT-qPCR assay, HTT canonical (CJ) and alternative (AJ) junction mRNA; assay type: cell-based; settings: Homo sapiens, A673 or K562 cells, 24 hours treatment; for IC50: decrease in CJ mRNA; for AC50: increase in AJ mRNA
Description: as §1
(§6) • Cells-to-CT 1-step kit: ThermoFisher A25602, Cells-to-CT lysis reagent: ThermoFisher 4391851C, TaqMan™ Fast Virus 1-Step Master Mix: ThermoFisher 4444436 • GAPDH: VIC-PL, ThermoFisher 4326317E (Assay: Hs99999905_ml)—used for K562/suspension cell lines • GUSB: VIC-PL, ThermoFisher 4326320E (Assay: Hs99999908_ml)—used for K562/suspension cell lines • PPIA: VIC-PL, ThermoFisher 4326316E (Assay: Hs99999904_ml)—used for A673/adherent cell lines
as §2, §3
(§7) The cells were then gently washed with 50 uL-100 uL cold PBS before proceeding to addition of lysis buffer. 30 uL-50 μL of room temperature lysis buffer with DNAse I (and optionally RNAsin) was added to each well. Cells were shaken/mixed thoroughly at room temperature for 5-10 minutes for lysis to take place and then 3 uL-5 μL of room temperature stop solution was added and wells were shaken/mixed again. After 2-5 minutes, the cell lysate plate was transferred to ice for RT-qPCR reaction setup. The lysates could also be frozen at −80° C. for later use.
(§8) In some cases, a direct lysis buffer was used. An appropriate volume of 3×lysis buffer (10 mM Tris, 150 mM NaCl, 1.5%-2.5% Igepal and 0.1-1 U/uL RNAsin, pH 7.4) was directly added to either K562 or A673 cells in media and mixed by pipetting 3 times. The plates were then incubated at room temperature with shaking/rocking for 20-50 minutes to allow for lysis to take place. After this time, the cell lysate plate was transferred to ice to set up for the RT-qPCR reactions. The lysates could also be frozen at −80° C. for later use. […]

MYB CJ mRNA = experiment: Gene panel canonical junction qPCR assay, MYB; assay type: cell-based; settings: Homo sapiens, larger gene panel, read-out: MYB IC50 (decrease in CJ mRNA levels)
Description: as §1, §2, §3, §4, §5

SMN2 CJ mRNA = experiment: Gene panel canonical junction qPCR assay, SMN2; assay type: cell-based; settings: Homo sapiens, larger gene panel, read-out: SMN2 IC50 (decrease in CJ mRNA levels)
Description: as §1, §2, §3, §4, §5

MYB mRNA = experiment: Splicing RT-qPCR assay, MYB canonical (CJ) and alternative (AJ) junction mRNA; assay type: cell-based; settings: Homo sapiens, A673 or K562 cells, 24 hours treatment; for IC50: decrease in CJ mRNA; for AC50: increase in AJ mRNA
Description: as §1, §6, §2, §3, §7, §8

Target C CJ mRNA = experiment: Gene panel canonical junction qPCR assay, Target C; assay type: cell-based; settings: Homo sapiens, larger gene panel, read-out: Target C IC50 (decrease in CJ mRNA levels)
Description: as §1, §2, §3, §4, §5

[1] = Cell Titer Glo 2.0 cell viability assay; settings: human, K562 cells
[2] = tested on: HiBiT-tagged MYB protein in K562 cells; experiment: HiBiT protein abundance assay, MYB; assay type: cell-based, human; settings: HiBiT-modified K562 cells, 24 hours, luminescence
Description: (§9) Compounds described herein were used to screen for effects on quantitative protein abundance using a HiBit assay system (Promega). Quantitative protein abundance was determined by measuring the protein levels of HiBit-tagged protein targets expressed in cell culture via luminescence using the Nano-Glo HiBiT Lytic Detection System, which uses a split complementation assay format to reconstitute NanoBiT enzyme to generate a luminescent signal. A protein abundance assay was developed such that endogenous protein targets could be modified with the HiBiT peptide tag and their abundance could be assessed after compound treatment. Briefly, K562 cell lines containing a HiBiT-modification were treated with various compounds described herein (e.g., compounds of Formulas (I), (II), or (III)). After treatment for 24 hours, the protein abundance of a specific target was determined by measuring luminescence.
(§10) • Promega Nano-Glo HiBiT Lytic Detection System (cat #N3030) • Corning 384-well TC-treated microplates (cat #3570) • Synthego Engineered Cells Knock-In Clones
(§11) Cells were maintained in IMDM with 10% FBS. Before the assay, cells were diluted with […] growth media (IMDM+1% FBS media) and were seeded in a 384-well plate at a density of 10000 cells/well (for each cell line listed in Table 5). Each compound was prepared as a 10-point 3-fold serial dilution in DMSO with the top dose at a final concentration of 10 μM in the well. Unmodified K562 cells were added at the previously specified density with DMSO to serve as an assay baseline and positive control (PC) and DMSO only with the respective modified cell lines was added to the negative control (NC) columns. Final DMSO concentration was kept at or below 0.25%. Treated cell plates were placed in an incubator at 37° C. with 5% CO2 for 24 hours. After 24 hours, 25 μL of Complete HiBit Lytic reagent was added to each well at room temperature (e.g. one plate requiring 10 mL Lytic Buffer, 100 μL LgBiT Protein, 200 μL Lytic Substrate), shaken for 5 minutes at 600 RPM, then left to sit for 10 minutes for signal to stabilize before reading on a Spark Cyto plate reader (Tecan) with a 500 ms measurement time.
(§12) To determine compound effects on protein abundance of each target in Table 5, the percent response for each respective cell line was calculated at each compound concentration as follows:
(§13) For the normalized response at each concentration, a four-parameter logistical regression was fit to the data and the response was interpolated at the 50% value to determine a concentration for protein abundance at 50% (IC50) the untreated control.

[3] = tested on: HiBiT-tagged Target C protein in K562 cells; experiment: HiBiT protein abundance assay, Target C; assay type: cell-based, human; settings: HiBiT-modified K562 cells, 24 hours, luminescence
Description: as §9, §10, §11, §12, §13

[4] = tested on: HiBiT-tagged HTT protein in K562 cells; experiment: HiBiT protein abundance assay, HTT; assay type: cell-based, human; settings: HiBiT-modified K562 cells, 24 hours, luminescence
Description: as §9, §10, §11, §12, §13

| Structure (SMILES) | IC50 (HTT CJ mRNA) | IC50 (HTT mRNA) | AC50 (HTT mRNA) | IC50 (MYB CJ mRNA) | IC50 (SMN2 CJ mRNA) | IC50 (MYB mRNA) | AC50 (MYB mRNA) | IC50 (Target C CJ mRNA) | GI50 at 72 h [1] | IC50 [2] | IC50 [3] | IC50 [4] |
| --- | --- | --- | --- | --- | --- | --- | --- | --- | --- | --- | --- | --- |
| Cc1cn2cc(-c3cc4ncn([C@H]5CNCC[C@@H]5O)c(=O)c4s3)cc(F)c2n1 (relative stereo) [Compound 281, 6-{8-fluoro-2-methylimidazo[1,2-a]pyridin-6-yl}-3-[(trans)-4-hydroxypiperidin-3-yl]thieno[3,2-d]pyrimidin-4-one] | 1 to 10 µM | 1 to 10 µM | 1 to 10 µM | 1 to 10 µM | 1 to 10 µM | 1 to 10 µM | 1 to 10 µM | 1 to 10 µM |  |  |  |  |
| CN1CCN(c2nc3ncn(-c4ccc5nn(C)cc5c4)c(=O)c3s2)CC1 [Compound 182, 6-(2-methyl-2H-indazol-5-yl)-2-(4-methylpiperazin-1-yl)thiazolo[4,5-d]pyrimidin-7(6H)-one] | 1 to 10 µM | 1 to 10 µM | 1 to 10 µM |  | 1 to 10 µM |  |  |  |  |  |  |  |
| Cc1cc(-c2cn3c(=O)cc(N4CCN(C)CC4)nc3s2)cc2cn(C)nc12 [Compound 183, 2-(2,7-dimethyl-2H-indazol-5-yl)-7-(4-methylpiperazin-1-yl)-5H-thiazolo[3,2-a]pyrimidin-5-one] | > 10 µM | > 10 µM | > 10 µM | > 10 µM | 1 to 10 µM | > 10 µM | > 10 µM | > 10 µM |  |  |  |  |
| Cc1cn2cc(-c3cn4c(=O)cc(N5CCN(C)CC5)nc4s3)cc(F)c2n1 [Compound 184] | > 10 µM | > 10 µM | > 10 µM | > 10 µM | 1 to 10 µM | > 10 µM | 1 to 10 µM |  |  |  |  |  |
| Cc1cn2cc(-c3cc4ncn([C@H]5CCNC[C@@H]5O)c(=O)c4s3)cc(F)c2n1 [Compound 280] | 0.1 to 1 µM | 0.1 to 1 µM | 0.1 to 1 µM | 0.1 to 1 µM | 0.1 to 1 µM | 0.1 to 1 µM | 0.1 to 1 µM | 0.1 to 1 µM |  |  |  |  |
| Cc1c(O)c(-c2nc3c(=O)n(C4CCNCC4)cnc3s2)cc2cn(C)nc12 [Compound 283] |  |  |  |  |  |  |  |  | 1 to 10 µM | 1 to 10 µM | 1 to 10 µM | 1 to 10 µM |
| O=c1c2sc(-c3ccc(-c4cn[nH]c4)cc3O)nc2ncn1C1CCNCC1 [Compound 334] |  |  |  |  |  |  |  |  | > 10 µM | > 10 µM | > 10 µM | > 10 µM |
| COc1c(-c2nc3ncn(C4CCNCC4)c(=O)c3s2)cc2cn(C)nc2c1C [Compound 335, 2-(6-methoxy-2,7-dimethylindazol-5-yl)-6-(piperidin-4-yl)-[1,3]thiazolo[4,5-d]pyrimidin-7-one] |  |  |  |  |  |  |  |  | > 10 µM | > 10 µM | > 10 µM | > 10 µM |
| Cc1cc(-c2cc3ccn(C4CCN(C)CC4)c(=O)c3s2)cc2cn(C)nc12 [Compound 807] | 0.1 to 1 µM | 0.1 to 1 µM | 0.1 to 1 µM | 0.1 to 1 µM | < 0.1 µM | 0.1 to 1 µM | 0.1 to 1 µM | 1 to 10 µM | 1 to 10 µM |  |  |  |
